From publication PMC12652222 (International Journal of Molecular Sciences, 2025)
Several values for one entry are separate records, joined by “and”; a condition that tells them apart may be missing. Equal values may be shown once.

What was measured:
[1] = Total antioxidant capacity (TAC); format: biochemical; conditions: mean ± SE, n = 3
Procedure: (§1) The antioxidant activity was assessed using the iron reducing power (IRP) and the total antioxidant capacity (TAC). Ascorbic acid served as a standard to calculate the inhibition percentages (%) and the median inhibitory concentration (IC50) of each tested compound against the following radicals: nitric oxide (NO), hydroxyl (OH), hydrogen peroxide (H2O2), ABTS [79], and DPPH [80].

[2] = Iron-reducing power (IRP); format: biochemical; conditions: mean ± SE, n = 3
Procedure: as §1

[3] = DPPH radical scavenging; format: biochemical; conditions: mean ± SE, n = 3; for DPPH (%): inhibition % at 20 µg/mL
Procedure: as §1

[4] = ABTS radical scavenging; format: biochemical; conditions: mean ± SE, n = 3; for ABTS (%): inhibition % at 20 µg/mL
Procedure: as §1

[5] = Nitric oxide (NO) radical scavenging; format: biochemical; conditions: mean ± SE, n = 3; for NO (%): inhibition % at 20 µg/mL
Procedure: as §1

[6] = Hydroxyl (OH) radical scavenging; format: biochemical; conditions: mean ± SE, n = 3; for OH (%): inhibition % at 20 µg/mL
Procedure: as §1

[7] = Hydrogen peroxide (H2O2) scavenging; format: biochemical; conditions: mean ± SE, n = 3; for H2O2 (%): inhibition % at 20 µg/mL
Procedure: as §1

[8] = molecular target: acetylcholinesterase (AChE) (Homo sapiens, UniProt P22303); assay: biochemical; conditions: mean ± SE, n = 3; for IC50: read-out: AChE IC50 (µg/mL) (converted)
acetylcholinesterase (AChE), sequence (P22303 32-614, species assumed): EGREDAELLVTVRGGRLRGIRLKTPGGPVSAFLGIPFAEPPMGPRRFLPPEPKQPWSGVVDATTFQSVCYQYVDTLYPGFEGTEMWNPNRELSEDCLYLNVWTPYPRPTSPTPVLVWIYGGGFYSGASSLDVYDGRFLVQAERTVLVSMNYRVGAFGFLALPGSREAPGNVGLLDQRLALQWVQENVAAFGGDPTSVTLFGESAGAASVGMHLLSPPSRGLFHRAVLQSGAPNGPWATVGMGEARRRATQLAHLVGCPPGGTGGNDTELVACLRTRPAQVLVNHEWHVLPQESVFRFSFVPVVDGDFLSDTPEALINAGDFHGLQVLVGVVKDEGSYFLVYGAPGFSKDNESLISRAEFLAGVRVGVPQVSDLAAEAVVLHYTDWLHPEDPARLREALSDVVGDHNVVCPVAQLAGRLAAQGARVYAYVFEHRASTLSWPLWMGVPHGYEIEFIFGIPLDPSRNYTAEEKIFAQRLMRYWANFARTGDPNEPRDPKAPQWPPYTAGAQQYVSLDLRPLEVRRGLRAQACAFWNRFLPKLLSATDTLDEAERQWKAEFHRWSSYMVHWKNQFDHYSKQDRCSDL
Procedure: The inhibition percentage and IC50 of the acetylcholinesterase (AChE) enzyme were measured using the Ellman method.

[9] = test system: protein denaturation; assay: Protein denaturation inhibition (anti-arthritic); format: biochemical; design: concentration or dose not given beside the values; conditions: mean ± SE, n = 3
Procedure: (§2) Anti-arthritic activity was evaluated using diclofenac sodium as the reference drug. The inhibition percentage and IC50 were determined for protein denaturation and the proteinase enzyme.

[10] = molecular target: proteinase enzyme; assay: Proteinase inhibition (anti-arthritic); format: biochemical; design: Proteinase Inhibition (%): concentration or dose not given beside the values; conditions: mean ± SE, n = 3
Procedure: as §2

[11] = molecular target: T1, α-amylase (Homo sapiens, UniProt P04746); assay: α-Amylase inhibition; format: biochemical; conditions: for inhibition at 20 µg/mL: read-out: α-Amylase Inhibition (%)
T1 sequence (P04746 16-511): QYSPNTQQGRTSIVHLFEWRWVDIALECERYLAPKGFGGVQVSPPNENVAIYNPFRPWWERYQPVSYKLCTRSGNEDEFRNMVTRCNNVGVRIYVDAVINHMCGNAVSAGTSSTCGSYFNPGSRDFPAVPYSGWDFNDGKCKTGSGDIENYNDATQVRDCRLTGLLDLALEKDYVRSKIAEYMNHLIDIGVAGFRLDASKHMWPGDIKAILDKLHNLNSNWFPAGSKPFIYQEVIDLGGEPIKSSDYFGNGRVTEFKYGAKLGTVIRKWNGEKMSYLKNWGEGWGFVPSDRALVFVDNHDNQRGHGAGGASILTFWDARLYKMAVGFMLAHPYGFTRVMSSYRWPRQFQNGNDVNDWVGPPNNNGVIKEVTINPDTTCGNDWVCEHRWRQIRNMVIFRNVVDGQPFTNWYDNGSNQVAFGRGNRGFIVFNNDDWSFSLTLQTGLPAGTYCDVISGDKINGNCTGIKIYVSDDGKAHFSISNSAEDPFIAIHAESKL
Procedure: (§3) The IC50 and inhibition percentages (Inhib. %) of the enzymes α-amylase and α-glucosidase were calculated.

[12] = molecular target: α-glucosidase; assay: α-Glucosidase inhibition; format: biochemical; conditions: for inhibition of α-glucosidase: at 20 µg/mL
Procedure: as §3

| Structure (SMILES) | TAC (mg Gallic Acid/g) [1] | IRP [2] | DPPH (%) [3] | DPPH radical scavenging IC50 [3] | ABTS (%) [4] | ABTS radical scavenging IC50 [4] | NO (%) [5] | NO radical scavenging IC50 [5] | OH (%) [6] | OH radical scavenging IC50 [6] | H2O2 (%) [7] | H2O2 scavenging IC50 [7] | inhibition at 20 µg/mL [8] | IC50 [8] | Protein Denaturation Inhibition (%) [9] | Proteinase IC50 [10] | Proteinase Inhibition (%) [10] | inhibition at 20 µg/mL [11] | α-Glucosidase IC50 [12] | other results |
| --- | --- | --- | --- | --- | --- | --- | --- | --- | --- | --- | --- | --- | --- | --- | --- | --- | --- | --- | --- | --- |
| O=c1/c(=C\[C@H](O)[C@@H](O)[C@H](O)CO)sc2nc3sc4c(c3c(=O)n12)CCC4 [7d, (E)-2-((2S,3R,4R)-2,3,4,5-tetrahydroxypentylidene)-7,8-dihydro-5H,6H-cyclopenta [4,5]thieno [2,3-d]thiazolo [3,2-a]-pyrimidine-3,5(2H)-dione] | 20.09 ± 0.23 mg Gallic Acid/g | 12.94 ± 0.23 µg/mL | 16.69 ± 0.23% | 23.28 ± 0.49 µg/mL | 19.84 ± 0.23% | 16.31 ± 0.16 µg/mL | 10.94 ± 0.23% | 37.06 ± 1.13 µg/mL | 9.51 ± 0.20% | 49.77 ± 0.65 µg/mL | 10.65 ± 0.22% | 55.36 ± 1.03 µg/mL | 4.4 ± 0.14% | 165 µM | 13.82 ± 0.19% | 48.10 ± 0.46 µg/mL | 9.65 ± 0.19% | 15.9 ± 0.22% | 23.09 ± 0.41 µg/mL | – |
| O=c1/c(=C\[C@@H](O)[C@H](O)[C@H](O)CO)sc2nc3sc4c(c3c(=O)n12)CCCC4 [8e, (E)-2-((2R,3S,4R)-2,3,4,5-tetrahydroxypentylidene)-6,7,8,9-tetrahydro-5H-benzo [4,5]thieno [2,3-d]thiazolo [3,2-a]pyrimidine-3,5(2H)-dione] | 68.69 mg Gallic Acid/g and 68.69 ± 0.79 mg Gallic Acid/g | 61.54 µg/mL and 61.54 ± 0.79 µg/mL | – | 5.95 ± 0.12 µg/mL | – | 4.73 ± 0.05 µg/mL | – | 6.80 ± 0.16 µg/mL | – | 9.14 ± 0.05 µg/mL | – | 10.17 ± 0.12 µg/mL | 5.24 ± 0.17% | 134 µM | 54.07 ± 0.65% | 9.08 ± 0.11 µg/mL | 50.90 ± 0.65% | 62.2 ± 0.75% | 3.81 ± 0.05 µg/mL | IC50 [11]: 16.3 µM; inhibition of α-glucosidase [12]: 55.43 ± 0.75% |
| O=c1/c(=C\[C@H](O)[C@@H](O)[C@@H](O)[C@H](O)CO)sc2nc3sc4c(c3c(=O)n12)CCC4 [7c, (E)-2-((2S,3R,4S,5R)-2,3,4,5,6-pentahydroxyhexylidene)-7,8-dihydro-5H,6H-cyclopenta [4,5]thieno [2,3-d]thiazolo [3,2-a]-pyrimidine-3,5(2H)-dione] | 20.40 ± 0.26 mg Gallic Acid/g | 13.25 ± 0.26 µg/mL | 17.00 ± 0.26% | 22.84 ± 0.23 µg/mL | 20.15 ± 0.26% | 16.06 ± 0.19 µg/mL | 11.25 ± 0.26% | 36.00 ± 0.45 µg/mL | 9.78 ± 0.22% | 48.42 ± 1.40 µg/mL | 10.96 ± 0.25% | 53.83 ± 1.05 µg/mL | 5.87 ± 0.19% | 115 µM | 14.08 ± 0.21% | 46.88 ± 1.21 µg/mL | 9.91 ± 0.21% | 16.2 ± 0.24% | 22.37 ± 0.53 µg/mL | – |
| O=C1O[C@H]([C@@H](O)CO)C(O)=C1O [ascorbic acid, reference compound] | 78.44 mg Gallic Acid/g | 67.49 µg/mL | – | 5.45 µg/mL | – | 4.35 µg/mL | – | 6.18 µg/mL | – | 8.31 µg/mL | – | 9.24 µg/mL | – | – | – | – | – | – | – | – |
| O=c1/c(=C\[C@H](O)[C@@H](O)[C@@H](O)[C@H](O)CO)sc2nc3sc4c(c3c(=O)n12)CCCC4 [8c, (E)-2-((2S,3R,4S,5R)-2,3,4,5,6-pentahydroxyhexylidene)-6,7,8,9-tetrahydro-5H-benzo [4,5]-thieno [2,3-d]thiazolo [3,2-a]-pyrimidine-3,5(2H)-dione] | 15.90 ± 0.20 mg Gallic Acid/g | 8.75 ± 0.20 µg/mL | 12.50 ± 0.20% | 31.07 ± 0.34 µg/mL | 15.65 ± 0.20% | 20.68 ± 0.24 µg/mL | 6.75 ± 0.20% | 60.02 ± 1.12 µg/mL | 5.87 ± 0.17% | 80.74 ± 2.84 µg/mL | 6.58 ± 0.20% | 89.75 ± 2.32 µg/mL | 5.93 ± 0.19% | 110 µM | 10.35 ± 0.17% | 75.16 ± 2.30 µg/mL | 6.18 ± 0.17% | 11.9 ± 0.19% | 41.00 ± 1.33 µg/mL | – |
| C[C@H]1O[C@H](O[C@H]2[C@H](O)[C@@H](O)[C@@H](O[C@H]3[C@H](O)[C@@H](O)C(O)O[C@@H]3CO)O[C@@H]2CO)[C@H](O)[C@@H](O)[C@@H]1N[C@H]1C=C(CO)[C@@H](O)[C@H](O)[C@H]1O (stereo partly shown) [Acarbose, reference compound] | – | – | – | – | – | – | – | – | – | – | – | – | – | – | – | – | – | 69.85 ± 0.16% | – | inhibition of α-glucosidase [12]: 63.10 ± 0.16% |
| O=C(O)Cc1ccccc1Nc1c(Cl)cccc1Cl [Diclofenac sodium, reference compound] | – | – | – | – | – | – | – | – | – | – | – | – | – | – | 60.74 ± 0.14% | 8.20 ± 0.06 µg/mL | 56.57 ± 0.14% | – | – | – |
| O=c1/c(=C\[C@H](O)[C@@H](O)[C@H](O)[C@H](O)CO)sc2nc3sc4c(c3c(=O)n12)CCC4 [7a, (E)-2-((2S,3R,4R,5R)-2,3,4,5,6-pentahydroxyhexylidene)-7,8-dihydro-5H,6H-cyclopenta-[4,5]thieno [2,3-d]thiazolo [3,2-a]pyrimidine-3,5(2H)-dione] | 17.44 mg Gallic Acid/g and 17.44 ± 0.22 mg Gallic Acid/g | 10.29 µg/mL and 10.29 ± 0.22 µg/mL | 14.04 ± 0.22% | – | 17.19 ± 0.22% | 18.83 ± 0.22 µg/mL | 8.29 ± 0.22% | 48.89 ± 0.78 µg/mL | 7.21 ± 0.19% | 65.77 ± 2.12 µg/mL | 8.07 ± 0.21% | 73.10 ± 1.67 µg/mL | 5.75 ± 0.18% | 117 µM | 11.62 ± 0.18% | 62.33 ± 1.77 µg/mL | 7.45 ± 0.18% | 13.4 ± 0.21% | 31.92 ± 0.89 µg/mL | – |
